Key:
[1] = Cytotoxicity against human Bel7470 cells by trypan blue dye exclusion method; assay type: functional, cell-based
[2] = Cytotoxicity against human Bcap32 cells by trypan blue dye exclusion method; assay type: functional, cell-based
[3] = Cytotoxicity against human HeLa cells by trypan blue dye exclusion method; assay type: functional, cell-based
[4] = Cytotoxicity against human A549 cells; assay type: functional; settings: read-out: ED50 (the source's name)
[5] = Cytotoxicity against mouse P388 cells; assay type: functional, cell-based

Structure (SMILES) | IC50 [1] | IC50 [2] | IC50 [3] | EC50 [4] | IC50 [5]
O=C1C=CC[C@H]([C@@H](O)[C@H](O)c2ccccc2)O1 | 4.1 µM | 54.7 µM | 12.8 µM |  | 
O=C1C=CC[C@H]([C@H](O)[C@H](O)c2ccccc2)O1 [GONIODIOL] |  |  |  | 0.51 µM | 19.5 µM
